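Cultured in 96-well plates, cells were exposed to test compound for 48 hours across five concentrations. GI50: concentration for 50% inhibition of growth.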 The source made the active and inactive calls. No stated cut-off is given here; in the data, active = GI50 up to about 1.1 µM and inactive = higher.
What was measured:
Experiment in all cases: inhibition of tumour cell growth, NCI panel, 48 h
KM12 = system: KM12
K562 = system: K562
A549 = system: A549
T47D = system: T47D
TK-10 = system: TK-10
HT-29 = system: HT-29
PC-3 = system: PC-3
RPMI-8226 = system: RPMI-8226
HOP-92 = system: HOP-92
SNB-19 = system: SNB-19
COLO 205 = system: COLO 205
UACC-257 = system: UACC-257
OVCAR-8 = system: OVCAR-8
SF-539 = system: SF-539
MDA-MB-231 = system: MDA-MB-231
HCC 2998 = system: HCC 2998
DU-145 = system: DU-145
EKVX = system: EKVX
HL-60 = system: HL-60
NCI/ADR-RES = system: NCI/ADR-RES
SK-MEL-5 = system: SK-MEL-5
NCI-H522 = system: NCI-H522
OVCAR-3 = system: OVCAR-3
UO-31 = system: UO-31
U-251 = system: U-251
HCT-116 = system: HCT-116
MDA-MB-435 = system: MDA-MB-435
SK-MEL-2 = system: SK-MEL-2
NCI-H226 = system: NCI-H226
786-0 = system: 786-0
IGROV-1 = system: IGROV-1
CCRF-CEM = system: CCRF-CEM
MOLT-4 = system: MOLT-4
SK-OV-3 = system: SK-OV-3
A498 = system: A498
HCT-15 = system: HCT-15
SF-268 = system: SF-268
SF-295 = system: SF-295
UACC-62 = system: UACC-62
M14 = system: M14
RXF 393 = system: RXF 393
SNB-75 = system: SNB-75
Hs-578T = system: Hs-578T
CAKI-1 = system: CAKI-1
MCF7 = system: MCF7
NCI-H23 = system: NCI-H23
BT-549 = system: BT-549
LOX IMVI = system: LOX IMVI
NCI-H460 = system: NCI-H460
SN12C = system: SN12C
OVCAR-5 = system: OVCAR-5
SW-620 = system: SW-620
ACHN = system: ACHN
OVCAR-4 = system: OVCAR-4
MDA-N = system: MDA-N
HOP-62 = system: HOP-62

For CC1=C(C(=O)NC(C)(C)C)CC(C(=O)NC(C)(C)C)C(C)N1 (stereo unspecified), the GI50 (KM12) was > 100 µM (inactive), the GI50 (K562) was > 100 µM (inactive) and the GI50 (A549) was > 100 µM (inactive). The GI50 (T47D) was > 100 µM (inactive), the GI50 (TK-10) was > 100 µM (inactive) and the GI50 (HT-29) was > 100 µM (inactive). For the same molecule, the GI50 (PC-3) was > 100 µM (inactive), the GI50 (RPMI-8226) was > 100 µM (inactive) and the GI50 (HOP-92) was 71.1 µM (inactive). For the same molecule, the GI50 (SNB-19) was 85.1 µM (inactive), the GI50 (COLO 205) was > 100 µM (inactive) and the GI50 (UACC-257) was > 100 µM (inactive). For the same molecule, the GI50 (OVCAR-8) was > 100 µM (inactive), the GI50 (SF-539) was > 100 µM (inactive) and the GI50 (MDA-MB-231) was > 100 µM (inactive). The GI50 (HCC 2998) was > 100 µM (inactive), the GI50 (DU-145) was > 100 µM (inactive) and the GI50 (EKVX) was > 100 µM (inactive). For the same molecule, the GI50 (HL-60) was > 100 µM (inactive), the GI50 (NCI/ADR-RES) was > 100 µM (inactive) and the GI50 (SK-MEL-5) was > 100 µM (inactive). For the same molecule, the GI50 (NCI-H522) was > 100 µM (inactive), the GI50 (OVCAR-3) was > 100 µM (inactive) and the GI50 (UO-31) was > 100 µM (inactive). For the same molecule, the GI50 (U-251) was > 100 µM (inactive), the GI50 (HCT-116) was > 100 µM (inactive) and the GI50 (MDA-MB-435) was 93.8 µM (inactive). The GI50 (SK-MEL-2) was > 100 µM (inactive), the GI50 (NCI-H226) was > 100 µM (inactive) and the GI50 (786-0) was > 100 µM (inactive). For the same molecule, the GI50 (IGROV-1) was > 100 µM (inactive), the GI50 (CCRF-CEM) was 61 µM (inactive) and the GI50 (MOLT-4) was > 100 µM (inactive). For the same molecule, the GI50 (SK-OV-3) was > 100 µM (inactive), the GI50 (A498) was 73.1 µM (inactive) and the GI50 (HCT-15) was over 100 µM. For the same molecule, the GI50 (SF-268) was > 100 µM (inactive), the GI50 (SF-295) was > 100 µM (inactive) and the GI50 (UACC-62) was > 100 µM (inactive). For the same molecule, the GI50 (M14) was > 100 µM (inactive), the GI50 (RXF 393) was > 100 µM (inactive) and the GI50 (SNB-75) was 40.4 µM (inactive). The GI50 (Hs-578T) was > 100 µM (inactive), the GI50 (CAKI-1) was > 100 µM (inactive) and the GI50 (MCF7) was > 100 µM (inactive). For the same molecule, the GI50 (NCI-H23) was > 100 µM (inactive), the GI50 (BT-549) was > 100 µM (inactive) and the GI50 (LOX IMVI) was > 100 µM (inactive). The GI50 (NCI-H460) was > 100 µM (inactive), the GI50 (SN12C) was > 100 µM (inactive) and the GI50 (OVCAR-5) was > 100 µM (inactive). For the same molecule, the GI50 (SW-620) was > 100 µM (inactive), the GI50 (ACHN) was > 100 µM (inactive) and the GI50 (OVCAR-4) was > 100 µM (inactive). For the same molecule, the GI50 (MDA-N) was > 100 µM (inactive) and the GI50 (HOP-62) was > 100 µM (inactive).

From ChEMBL document CHEMBL1201862, “PubChem BioAssay data set” (2004)
